In PubChem BioAssay AID1963863 (Molecular Pharmacology Branch, DTP, NCI, 2024):

Test system: 931267-113-T-J1-PDC KRAS spheroid with HUVEC/MSC, viability
Experiment: Anticancer human tumor 931267-113-T-J1-PDC patient-derived colon adenocarcinoma cell line growth inhibition [KRAS2]
Conditions: for IC50: curve of first compound; for viability, T/C: stronger effect = lower value; active = viability on the fitted dose curve at most 10% of control; inactive = the rest
Description: Multicellular complex tumor spheroid response to RAS pathway inhibitors in combination with a targeted agents in patient-derived cell lines with oncogenic KRAS variants from multiple cancer types
A high-throughput screen of multi-cell type tumor spheroids was designed to identify active combinations of targeted small molecules and KRAS pathway inhibitors. Complex spheroids include a stromal component modeled by human endothelial cells (HUVEC) and fibroblasts modeled by human mesenchymal stem cells (MSCs). The concentration ranges selected for each drug and investigational agent were based upon clinically achievable concentrations if the clinical Cmax of the agent was known.
Compounds. The drugs and investigational agents: BI-3406 (NSC825286), BAY-293 (NSC824723), batoprotafib (TNO155; NSC825523), sotorasib (AMG 510; NSC818433), MRTX1257 (NSC819558), elimusertib (BAY 1895344; NSC800525), molibresib (GSK525762; NSC774829), temuterkib (LY3214996; NSC803410), venetoclax (NSC766270), alisertib (NSC759677), olaparib (NSC753686), talazoparib (NSC767125), erdafitinib (NSC781556), ipatasertib (NSC767898), cabozantinib (NSC761068), nintedanib (NSC756659), abemaciclib (NSC768073), docetaxel (NSC628503), trametinib (NSC758246), and sapanisertib (NSC764658) were obtained from the National Cancer Institute (NCI) Developmental Therapeutics Program Chemical Repository. The FDA-approved anticancer drug set is available from the Developmental Therapeutics Program. […] The stock solutions were prepared in dimethyl sulfoxide (DMSO, Sigma-Aldrich, St. Louis, MO, cat. D2650) at 800-fold the tested concentration and stored at -70 degrees C prior to their use. All drugs and investigational agents were tested over a range starting from a high concentration at or near the clinical Cmax and decreasing in half-log increments. If the clinical Cmax for an agent had not been determined, the highest concentration tested was 10 microM.
Cell Culture. All cells were maintained in an incubator at 37 degrees C and 5% CO2 with 95% humidity. The PDC lines were cultured according to standard operating procedures established by the NCI PDMR (https://pdmr.cancer.gov/sops/default.htm). Briefly, all PDCs were thawed and cultured in Matrigel-coated flasks prepared with a working solution of 1X Ham's F-12 nutrient mix, without supplementation (Invitrogen, Waltham, MA, cat. 11765054), 100 U/mL penicillin-streptomycin (Invitrogen, cat. 15140122), and 2.5% Matrigel (Corning Inc., Corning, NY, cat. 354248) for the first three passages. All PDCs were cultured in complete DMEM/F-12 media containing advanced DMEM/F-12 (Invitrogen, cat. 12634028), 4.9% defined fetal bovine serum, heat inactivated (HyClone Laboratories Inc., Logan, UT, cat. SH30070.03HI), 389 ng/mL hydrocortisone (Sigma-Aldrich, cat. H4001), 9.7 ng/mL human EGF recombinant protein (Invitrogen, cat. PHG0313), 23.4 microg/mL adenine (Sigma-Aldrich, cat. A2786), 97.3 U/mL penicillin-streptomycin (Invitrogen, cat. 15140122), 1.9 mM L-glutamine (Invitrogen, cat. 25030081), and 9.7 microM Y-27632 dihydrochloride (Tocris Bioscience, Bristol, United Kingdom, cat. 1254). The PDCs were cultured in complete DMEM/F12 media without 9.7 microM Y-27632 dihydrochloride for at least two passages prior to the screen. The established cell line HOP-62 was cultured in RPMI 1640 medium, HEPES (Invitrogen, cat. 22400105) with 10% defined fetal bovine serum (HyClone Laboratories Inc., cat. SH30070.03) and 2 mM L-glutamine (Invitrogen, cat. 25030081). The pooled donor HUVEC were cultured in endothelial cell growth medium 2 (PromoCell, Heidelberg, Germany, cat. C-22011) and the hMSC were cultured in mesenchymal stem cell growth medium 2 (PromoCell, cat. C-28009). For all experiments, HUVEC and hMSC were used at passages </=5, while the malignant cell lines were used at passages </=15. […]

[1] = second compound 0.1 µM, first compound 0.0316 µM
[2] = second compound 0.1 µM, first compound 0.1 µM
[3] = second compound 0.316 µM, first compound 0.0316 µM
[4] = second compound 0.316 µM, first compound 0.1 µM
[5] = second compound 1 µM, first compound 0.0316 µM
[6] = second compound 1 µM, first compound 0.1 µM
[7] = second compound 3.16 µM, first compound 0.0316 µM
[8] = second compound 3.16 µM, first compound 0.1 µM
[9] = second compound 10 µM, first compound 0.0316 µM
[10] = second compound 10 µM, first compound 0.1 µM
[11] = second compound 0.1 µM, first compound 0.316 µM
[12] = second compound 0.1 µM, first compound 1 µM
[13] = second compound 0.1 µM, first compound 3.16 µM
[14] = second compound 0.1 µM, first compound 10 µM
[15] = second compound 0.316 µM, first compound 0.316 µM
[16] = second compound 0.316 µM, first compound 1 µM
[17] = second compound 0.316 µM, first compound 3.16 µM
[18] = second compound 0.316 µM, first compound 10 µM
[19] = second compound 1 µM, first compound 0.316 µM
[20] = second compound 1 µM, first compound 1 µM
[21] = second compound 1 µM, first compound 3.16 µM
[22] = second compound 1 µM, first compound 10 µM
[23] = second compound 3.16 µM, first compound 0.316 µM
[24] = second compound 3.16 µM, first compound 1 µM
[25] = second compound 3.16 µM, first compound 3.16 µM
[26] = second compound 3.16 µM, first compound 10 µM
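Also: compound exposure lasted 7 days before the readout.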

CN(C)C/C=C/C(=O)Nc1cc2c(Nc3ccc(F)c(Cl)c3)ncnc2cc1O[C@H]1CCOC1 + COc1cc2nc(C)nc(NC(C)c3cc(N)cc(C(F)(F)F)c3)c2cc1OC1CCOC1
> 100 nM: IC50 (second compound 0.1 µM) | IC50 (second compound 0.316 µM) | IC50 (second compound 1 µM) | IC50 (second compound 3.16 µM) | IC50 (second compound 10 µM)
inactive: viability, T/C (second compound 0.1 µM, first compound 0.000316 µM) 96.2% | viability, T/C (second compound 0.1 µM, first compound 0.001 µM) 92.8% | viability, T/C (second compound 0.1 µM, first compound 0.00316 µM) 75.7% | viability, T/C (second compound 0.1 µM, first compound 0.01 µM) 87.5% | viability, T/C [1] 103% | viability, T/C [2] 116% | viability, T/C (second compound 0.316 µM, first compound 0.000316 µM) 81.8% | viability, T/C (second compound 0.316 µM, first compound 0.001 µM) 75% | viability, T/C (second compound 0.316 µM, first compound 0.00316 µM) 90.3% | viability, T/C (second compound 0.316 µM, first compound 0.01 µM) 87.6% | viability, T/C [3] 85.2% | viability, T/C [4] 93.5% | viability, T/C (second compound 1 µM, first compound 0.000316 µM) 87.7% | viability, T/C (second compound 1 µM, first compound 0.001 µM) 92.5% | viability, T/C (second compound 1 µM, first compound 0.00316 µM) 104% | viability, T/C (second compound 1 µM, first compound 0.01 µM) 89.8% | viability, T/C [5] 100% | viability, T/C [6] 94% | viability, T/C (second compound 3.16 µM, first compound 0.000316 µM) 72.8% | viability, T/C (second compound 3.16 µM, first compound 0.001 µM) 72.8% | viability, T/C (second compound 3.16 µM, first compound 0.00316 µM) 88.1% | viability, T/C (second compound 3.16 µM, first compound 0.01 µM) 74.9% | viability, T/C [7] 97.2% | viability, T/C [8] 108% | viability, T/C (second compound 10 µM, first compound 0.000316 µM) 69.6% | viability, T/C (second compound 10 µM, first compound 0.001 µM) 78.8% | viability, T/C (second compound 10 µM, first compound 0.00316 µM) 77% | viability, T/C (second compound 10 µM, first compound 0.01 µM) 88.6% | viability, T/C [9] 102% | viability, T/C [10] 83.7%

COc1cc(Nc2ncc3c(n2)-c2ccc(Cl)cc2C(c2c(F)cccc2OC)=NC3)ccc1C(=O)O + COc1cc2nc(C)nc(NC(C)c3cc(N)cc(C(F)(F)F)c3)c2cc1OC1CCOC1
53.9 nM: IC50 (second compound 10 µM)
> 10000 nM: IC50 (second compound 0.1 µM) | IC50 (second compound 0.316 µM) | IC50 (second compound 1 µM) | IC50 (second compound 3.16 µM)
inactive: viability, T/C [1] 102% | viability, T/C [2] 85.6% | viability, T/C [11] 80.7% | viability, T/C [12] 79.5% | viability, T/C [13] 87.8% | viability, T/C [14] 57% | viability, T/C [3] 86.5% | viability, T/C [4] 93.5% | viability, T/C [15] 75.3% | viability, T/C [16] 72.4% | viability, T/C [17] 57.9% | viability, T/C [18] 54.3% | viability, T/C [5] 85.6% | viability, T/C [6] 79.8% | viability, T/C [19] 86.3% | viability, T/C [20] 78.7% | viability, T/C [21] 66.5% | viability, T/C [22] 58.9% | viability, T/C [7] 90% | viability, T/C [8] 91% | viability, T/C [23] 82.9% | viability, T/C [24] 83.1% | viability, T/C [25] 79% | viability, T/C [26] 49.6% | viability, T/C [9] 75.5% | viability, T/C [10] 7.27% | viability, T/C (second compound 10 µM, first compound 0.316 µM) 13.8% | viability, T/C (second compound 10 µM, first compound 1 µM) 12.1% | viability, T/C (second compound 10 µM, first compound 3.16 µM) 64.3% | viability, T/C (second compound 10 µM, first compound 10 µM) 4.17%

Cn1nccc1Nc1nccc(-c2cc3c(s2)C(C)(C)N(CCN2CCOCC2)C3=O)n1 + C=CC(=O)N1CCN(c2nc(OCC3CCCN3C)nc3c2CCN(c2cccc4cccc(C)c24)C3)CC1CC#N
inactive: viability, T/C (second compound 0.0316 µM, first compound 0.0316 µM) 118% | viability, T/C (second compound 0.0316 µM, first compound 0.1 µM) 97.7% | viability, T/C (second compound 0.0316 µM, first compound 0.316 µM) 59.8% | viability, T/C (second compound 0.0316 µM, first compound 1 µM) 23% | viability, T/C [1] 88.9% | viability, T/C [2] 92% | viability, T/C [11] 57.8% | viability, T/C [12] 37.8% | viability, T/C [13] 4.83% | viability, T/C [3] 107% | viability, T/C [4] 91% | viability, T/C [15] 55.7% | viability, T/C [16] 25.5% | viability, T/C [5] 88.5% | viability, T/C [6] 65.9% | viability, T/C [19] 59.7% | viability, T/C [20] 23.2%
400 nM: IC50 (second compound 0.316 µM)
< 31.6 nM: IC50 (second compound 3.16 µM)
424 nM: IC50 (second compound 0.0316 µM)
526 nM: IC50 (second compound 0.1 µM)
active: viability, T/C (second compound 0.0316 µM, first compound 3.16 µM) 7.09% | viability, T/C (second compound 0.0316 µM, first compound 10 µM) 4.66% | viability, T/C [14] 4.43% | viability, T/C [17] 6.39% | viability, T/C [18] 4.33% | viability, T/C [21] 3.82% | viability, T/C [22] 2.07% | viability, T/C [7] 0.35% | viability, T/C [8] 0.25% | viability, T/C [23] 0.29% | viability, T/C [24] 0.14% | viability, T/C [25] 0.14% | viability, T/C [26] 0.22%
365 nM: IC50 (second compound 1 µM)
